We go through eight molecules from PMC5404560, “Towards Selective Mycobacterial ClpP1P2 Inhibitors with Reduced Activity against the Human Proteasome” (Antimicrobial Agents and Chemotherapy, 2017).

Values after ≈ are worked out from the molar mass of the structure shown. Counter-ions that a name gives are not always drawn. Like-named read-outs stand apart in the source and are kept apart here.

One test deals with T1, Neprilysin (Homo sapiens, UniProt P08473).
T1 construct: Reaction Biology Corporation (contract testing)
Description: Protease panel: Neprilysin. Type of test: biochemical. The note with it: supplement panel table, test and control compound. The method, then: (§1) Protease panel testing was carried out by Reaction Biology Corporation.

In another test the target is T2, ADAM10 (Homo sapiens, UniProt O14672).
T2 construct: Reaction Biology Corporation (contract testing)
The test is described as follows: Protease panel: ADAM10. Type of test: biochemical. Conditions: supplement panel table, test and control compound.

The target in the next test is T3, MMP 12 (Homo sapiens, UniProt P39900).
T3 construct: Reaction Biology Corporation (contract testing)
The test is described as follows: Protease panel: MMP 12. Conditions: supplement panel table, test and control compound. Type of test: biochemical. The method, then:
as §1

A further test deals with MMP 3 (Homo sapiens, UniProt P08254). The test is described as follows: Protease panel: MMP 3. Conditions: supplement panel table, test and control compound. Format: biochemical. The method, then: as §1
Another test deals with MMP 14 (Homo sapiens, UniProt P50281). The test is described as follows: Protease panel: MMP 14. Format: biochemical. The note with it: supplement panel table, test and control compound. The method, then:
as §1

The target in the next test is MMP 13 (Homo sapiens, UniProt P45452). Description: biochemical.
The target of another test is MMP 7 (Homo sapiens, UniProt P09237). Description: Protease panel: MMP 7. Format: biochemical. Conditions: supplement panel table, test and control compound. The method, then:
as §1

The next test concerns the target TACE (Homo sapiens, UniProt P78536). Description: biochemical.
Another test deals with ClpP1P2 (Mycolicibacterium smegmatis, UniProt A0R197+A0R198). The test is described as follows: ClpP1P2 inhibition whole-cell RFP-SsrA reporter assay. Conditions: 3 h incubation. For orientation: In a reporter assay the amount or activity of a reporter protein is the signal.
The next test addresses HepG2 proteasome (Homo sapiens, UniProt P20618+P28074). The test is described as follows: Cell-based proteasome CT-like peptidase inhibition assay (Proteasome-Glo).
A further test relates to M. smegmatis ΔprcAB. Type of test: cell-based. Conditions: 24 h exposure, OD600; concentration inhibiting 50% of growth.
The subject of a further test is M. tuberculosis H37Rv. The test is described as follows: microbe, parasite or virus in culture. Type of test: cell-based. The note with it: Mycobacterium tuberculosis, H37RV, 120 h, 5 days.
Another test deals with T4, Thrombin a (Homo sapiens, UniProt P00734).
T4 construct: Reaction Biology Corporation (contract testing)
The test is described as follows: Protease panel: Thrombin a. Format: biochemical. The note with it: supplement panel table, test and control compound.

Another test concerns the target T5, Tryptase g1 (Homo sapiens, UniProt Q9NRR2).
T5 construct: Reaction Biology Corporation (contract testing)
Description: Protease panel: Tryptase g1. Type of test: biochemical. Conditions: supplement panel table, test and control compound.

For the next test, the target named is T6, Tryptase b2 (Homo sapiens, UniProt P20231).
T6 construct: Reaction Biology Corporation (contract testing)
Description: Protease panel: Tryptase b2. The note with it: supplement panel table, test and control compound. Type of test: biochemical.

In a further test the target is T7, Urokinase (Homo sapiens, UniProt P00749).
T7 construct: Reaction Biology Corporation (contract testing)
The test is described as follows: Protease panel: Urokinase. Type of test: biochemical. Conditions: supplement panel table, test and control compound.

In a further test the target is T8, Plasma kallikrein (Homo sapiens, UniProt P03952).
T8 construct: Reaction Biology Corporation (contract testing)
Description: Protease panel: Plasma kallikrein. Format: biochemical. The note with it: supplement panel table, test and control compound.

A further test has as its target Kallikrein 13 (Homo sapiens, UniProt Q9UKR3). Description: Protease panel: Kallikrein 13. Format: biochemical. Conditions: supplement panel table, test and control compound.
In another test the target is Kallikrein 12 (Homo sapiens, UniProt Q9UKR0). Description: Protease panel: Kallikrein 12. Conditions: supplement panel table, test and control compound. Type of test: biochemical.
In the next test the target is Elastase. Description: Protease panel: Elastase. Format: biochemical. Conditions: supplement panel table, test and control compound.
The next test addresses Kallikrein 5 (Homo sapiens, UniProt Q9Y337). Description: Protease panel: Kallikrein 5. Type of test: biochemical. Conditions: supplement panel table, test and control compound.
In a further test the target is T9, Plasmin (Homo sapiens, UniProt P00747).
T9 construct: Reaction Biology Corporation (contract testing)
The test is described as follows: Protease panel: Plasmin. Type of test: biochemical. Conditions: supplement panel table, test and control compound.

The target in a further test is Kallikrein 14 (Homo sapiens, UniProt Q9P0G3). The test is described as follows: Protease panel: Kallikrein 14. Type of test: biochemical. Conditions: supplement panel table, test and control compound.
Another test deals with Kallikrein 7 (Homo sapiens, UniProt P49862). Description: Protease panel: Kallikrein 7. Conditions: supplement panel table, test and control compound. Format: biochemical.
Another test has as its system Trypsin. Description: Protease panel: Trypsin. The note with it: supplement panel table, test and control compound. Format: biochemical.
In the next test the target is T10, FXa (Homo sapiens, UniProt P00742).
T10 construct: FXa serine peptidase
Description: Protease panel: FXa. Format: biochemical. The note with it: supplement panel table, test and control compound.

A further test addresses Matriptase 2 (Homo sapiens, UniProt Q8IU80). Description: Protease panel: Matriptase 2. Format: biochemical. Conditions: supplement panel table, test and control compound.
In a further test the target is T11, Calpain 1 (Homo sapiens, UniProt P07384).
T11 construct: Reaction Biology Corporation (contract testing)
The test is described as follows: Protease panel: Calpain 1. Type of test: biochemical. Conditions: supplement panel table, test and control compound.

For another test, the target named is T12, Cathepsin B (Homo sapiens, UniProt P07858).
T12 construct: Reaction Biology Corporation (contract testing)
The test is described as follows: Protease panel: Cathepsin B. Format: biochemical. The note with it: supplement panel table, test and control compound.

For the next test, the target named is Cathepsin L (Homo sapiens, UniProt P07711). The test is described as follows: Protease panel: Cathepsin L. Type of test: biochemical. The note with it: supplement panel table, test and control compound.
The target of a further test is Cathepsin H (Homo sapiens, UniProt P09668). Description: Protease panel: Cathepsin H. Type of test: biochemical. Conditions: supplement panel table, test and control compound.
In the next test the target is T13, Papain (Carica papaya, UniProt P00784).
T13 construct: Reaction Biology Corporation (contract testing)
Description: Protease panel: Papain. Format: biochemical. The note with it: supplement panel table, test and control compound.

The target in a further test is T14, Cathepsin C (Homo sapiens, UniProt P53634).
T14 construct: Reaction Biology Corporation (contract testing)
The test is described as follows: Protease panel: Cathepsin C. Type of test: biochemical. The note with it: supplement panel table, test and control compound.

A further test deals with Cathepsin S (Homo sapiens, UniProt P25774). Description: Protease panel: Cathepsin S. Type of test: biochemical. Conditions: supplement panel table, test and control compound.
The target of the next test is Cathepsin V (Homo sapiens, UniProt O60911). Description: Protease panel: Cathepsin V. Type of test: biochemical. Conditions: supplement panel table, test and control compound.
The mark [1] stands for this setting: M. smegmatis ΔprcAB IC50 (μM) for ClpP1P2, whole-cell RFP-SsrA reporter.

Chain of ClpP1P2 (A0R198 4-203): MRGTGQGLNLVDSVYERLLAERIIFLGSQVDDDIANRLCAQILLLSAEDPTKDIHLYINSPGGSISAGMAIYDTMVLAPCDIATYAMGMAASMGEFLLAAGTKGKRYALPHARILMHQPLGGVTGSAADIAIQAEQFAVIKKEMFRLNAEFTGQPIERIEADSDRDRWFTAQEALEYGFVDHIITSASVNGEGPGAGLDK
Chain of ClpP1P2 (A0R197 17-218): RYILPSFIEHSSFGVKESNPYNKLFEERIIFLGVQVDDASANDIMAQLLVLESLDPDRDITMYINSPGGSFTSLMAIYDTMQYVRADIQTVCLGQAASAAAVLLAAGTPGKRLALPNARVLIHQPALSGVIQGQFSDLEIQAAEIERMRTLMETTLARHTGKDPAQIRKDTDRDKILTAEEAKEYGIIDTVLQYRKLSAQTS
Chain of Cathepsin L (P07711 114-333, species assumed): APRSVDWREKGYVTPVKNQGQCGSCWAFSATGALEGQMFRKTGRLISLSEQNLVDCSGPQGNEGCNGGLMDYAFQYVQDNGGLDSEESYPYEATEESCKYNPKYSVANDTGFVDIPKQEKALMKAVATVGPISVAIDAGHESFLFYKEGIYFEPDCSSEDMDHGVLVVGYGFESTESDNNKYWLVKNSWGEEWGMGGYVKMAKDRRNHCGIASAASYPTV
Chain of Kallikrein 13 (Q9UKR3 17-277, species assumed): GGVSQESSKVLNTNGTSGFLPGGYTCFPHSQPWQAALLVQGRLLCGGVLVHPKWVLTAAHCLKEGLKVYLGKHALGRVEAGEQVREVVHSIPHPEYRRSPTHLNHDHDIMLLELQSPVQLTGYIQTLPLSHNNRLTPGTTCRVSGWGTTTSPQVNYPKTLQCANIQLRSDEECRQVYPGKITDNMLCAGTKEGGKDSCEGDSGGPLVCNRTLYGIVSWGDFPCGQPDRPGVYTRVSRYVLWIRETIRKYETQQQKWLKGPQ
T11 sequence (P07384 whole entry): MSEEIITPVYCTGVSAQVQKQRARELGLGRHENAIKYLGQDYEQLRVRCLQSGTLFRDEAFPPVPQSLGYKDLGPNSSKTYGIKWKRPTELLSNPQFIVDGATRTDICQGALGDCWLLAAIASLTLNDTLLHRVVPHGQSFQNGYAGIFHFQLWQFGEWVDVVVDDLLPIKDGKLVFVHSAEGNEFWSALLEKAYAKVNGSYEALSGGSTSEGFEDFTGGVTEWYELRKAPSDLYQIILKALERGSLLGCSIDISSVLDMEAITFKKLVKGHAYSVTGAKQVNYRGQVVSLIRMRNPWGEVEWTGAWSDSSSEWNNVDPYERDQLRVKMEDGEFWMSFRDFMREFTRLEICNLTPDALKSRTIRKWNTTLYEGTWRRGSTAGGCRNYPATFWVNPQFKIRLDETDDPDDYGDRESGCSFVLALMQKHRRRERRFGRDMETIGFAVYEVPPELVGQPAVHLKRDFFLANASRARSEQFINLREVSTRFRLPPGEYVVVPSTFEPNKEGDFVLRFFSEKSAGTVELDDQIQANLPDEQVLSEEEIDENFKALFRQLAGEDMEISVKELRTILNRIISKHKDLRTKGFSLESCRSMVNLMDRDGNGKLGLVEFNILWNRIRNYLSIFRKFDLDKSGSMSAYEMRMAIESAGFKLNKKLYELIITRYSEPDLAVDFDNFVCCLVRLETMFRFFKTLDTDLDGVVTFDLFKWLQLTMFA
T11 sequence (P04632 whole entry partner): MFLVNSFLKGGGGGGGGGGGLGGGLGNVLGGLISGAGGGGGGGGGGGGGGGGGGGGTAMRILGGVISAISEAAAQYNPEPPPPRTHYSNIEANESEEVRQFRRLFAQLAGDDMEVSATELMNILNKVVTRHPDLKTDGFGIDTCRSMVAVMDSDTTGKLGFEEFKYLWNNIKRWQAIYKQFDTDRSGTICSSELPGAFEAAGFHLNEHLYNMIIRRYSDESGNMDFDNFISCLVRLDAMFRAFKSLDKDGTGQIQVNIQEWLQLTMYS
Chain of Matriptase 2 (Q8IU80 whole entry, species assumed): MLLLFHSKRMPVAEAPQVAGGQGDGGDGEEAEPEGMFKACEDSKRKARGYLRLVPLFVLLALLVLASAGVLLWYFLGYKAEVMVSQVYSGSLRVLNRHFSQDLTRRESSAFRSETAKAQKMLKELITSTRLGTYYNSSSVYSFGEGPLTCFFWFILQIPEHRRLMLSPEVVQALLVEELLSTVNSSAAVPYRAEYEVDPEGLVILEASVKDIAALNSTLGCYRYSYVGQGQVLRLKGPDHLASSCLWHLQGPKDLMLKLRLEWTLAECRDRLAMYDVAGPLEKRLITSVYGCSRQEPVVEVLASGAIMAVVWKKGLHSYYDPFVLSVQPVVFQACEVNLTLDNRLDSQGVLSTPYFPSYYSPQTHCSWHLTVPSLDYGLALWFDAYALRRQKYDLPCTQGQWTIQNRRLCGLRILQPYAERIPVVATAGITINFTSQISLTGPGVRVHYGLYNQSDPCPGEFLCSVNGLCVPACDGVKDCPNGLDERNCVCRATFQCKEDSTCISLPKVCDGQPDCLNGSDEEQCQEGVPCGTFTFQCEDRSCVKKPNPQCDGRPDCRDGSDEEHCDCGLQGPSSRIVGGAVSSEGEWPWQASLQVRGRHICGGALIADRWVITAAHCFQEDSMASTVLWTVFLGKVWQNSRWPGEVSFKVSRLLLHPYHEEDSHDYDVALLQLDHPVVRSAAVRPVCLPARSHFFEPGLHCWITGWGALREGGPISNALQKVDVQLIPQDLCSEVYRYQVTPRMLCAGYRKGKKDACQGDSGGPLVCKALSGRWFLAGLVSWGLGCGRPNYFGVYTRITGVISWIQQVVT
Chain of TACE (P78536 215-824): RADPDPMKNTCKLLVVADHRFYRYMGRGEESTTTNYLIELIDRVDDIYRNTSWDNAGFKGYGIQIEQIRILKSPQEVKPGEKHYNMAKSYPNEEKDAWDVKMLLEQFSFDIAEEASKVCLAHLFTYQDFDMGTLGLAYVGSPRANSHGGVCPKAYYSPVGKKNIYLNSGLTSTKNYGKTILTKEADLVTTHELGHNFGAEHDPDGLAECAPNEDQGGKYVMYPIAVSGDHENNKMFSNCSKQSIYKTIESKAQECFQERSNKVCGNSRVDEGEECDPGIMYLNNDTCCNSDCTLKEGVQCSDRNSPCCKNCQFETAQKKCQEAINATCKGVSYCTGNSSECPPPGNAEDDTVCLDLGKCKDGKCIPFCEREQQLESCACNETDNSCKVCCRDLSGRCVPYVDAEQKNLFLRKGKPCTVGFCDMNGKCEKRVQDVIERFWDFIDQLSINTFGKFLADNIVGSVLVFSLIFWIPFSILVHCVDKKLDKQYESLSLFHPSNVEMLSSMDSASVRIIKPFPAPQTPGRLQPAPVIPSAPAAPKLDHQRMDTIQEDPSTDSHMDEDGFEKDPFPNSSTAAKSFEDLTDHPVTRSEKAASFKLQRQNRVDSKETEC
Chain of MMP 7 (P09237 95-267, species assumed): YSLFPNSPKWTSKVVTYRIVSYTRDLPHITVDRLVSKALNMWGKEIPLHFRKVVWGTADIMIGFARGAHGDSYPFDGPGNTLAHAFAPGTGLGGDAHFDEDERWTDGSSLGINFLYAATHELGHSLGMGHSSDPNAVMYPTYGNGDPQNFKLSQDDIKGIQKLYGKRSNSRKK
T5 sequence (Q9NRR2 20-321): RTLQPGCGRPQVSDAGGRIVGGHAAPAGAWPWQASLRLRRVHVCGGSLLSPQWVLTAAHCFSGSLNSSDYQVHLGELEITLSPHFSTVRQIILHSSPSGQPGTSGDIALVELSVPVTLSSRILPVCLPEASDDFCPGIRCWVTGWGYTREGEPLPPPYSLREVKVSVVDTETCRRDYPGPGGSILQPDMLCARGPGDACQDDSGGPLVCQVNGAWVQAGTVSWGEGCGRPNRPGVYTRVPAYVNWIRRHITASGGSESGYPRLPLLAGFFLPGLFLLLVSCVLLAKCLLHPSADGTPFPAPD
T10 sequence (P00742 235-488 limits assumed): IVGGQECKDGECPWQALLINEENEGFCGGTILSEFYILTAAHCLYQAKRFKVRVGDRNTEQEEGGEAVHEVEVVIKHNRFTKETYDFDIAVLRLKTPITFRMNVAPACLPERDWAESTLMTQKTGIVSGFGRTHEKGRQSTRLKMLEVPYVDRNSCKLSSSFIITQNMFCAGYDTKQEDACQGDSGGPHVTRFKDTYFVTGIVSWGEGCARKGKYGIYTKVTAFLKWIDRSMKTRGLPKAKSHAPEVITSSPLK
T10 sequence (P00742 41-179 partner limits assumed): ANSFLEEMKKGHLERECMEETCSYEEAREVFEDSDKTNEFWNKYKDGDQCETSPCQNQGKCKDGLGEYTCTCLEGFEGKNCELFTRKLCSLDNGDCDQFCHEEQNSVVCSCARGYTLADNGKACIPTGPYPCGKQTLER
Chain of Kallikrein 7 (P49862 30-253, species assumed): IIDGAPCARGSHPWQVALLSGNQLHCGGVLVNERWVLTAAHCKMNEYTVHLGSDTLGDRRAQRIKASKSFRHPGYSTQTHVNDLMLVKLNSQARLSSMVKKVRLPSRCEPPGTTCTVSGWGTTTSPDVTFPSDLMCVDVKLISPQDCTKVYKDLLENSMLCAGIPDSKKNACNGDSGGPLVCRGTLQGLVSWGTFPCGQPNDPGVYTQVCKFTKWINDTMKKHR
T13 sequence (P00784 134-345): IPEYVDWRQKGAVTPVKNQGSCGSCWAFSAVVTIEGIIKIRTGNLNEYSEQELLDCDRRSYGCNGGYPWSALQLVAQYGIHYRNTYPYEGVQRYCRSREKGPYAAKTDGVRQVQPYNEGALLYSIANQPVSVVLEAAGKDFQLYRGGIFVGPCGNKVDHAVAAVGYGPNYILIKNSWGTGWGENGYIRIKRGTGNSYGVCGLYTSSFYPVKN
T6 sequence (P20231 31-275): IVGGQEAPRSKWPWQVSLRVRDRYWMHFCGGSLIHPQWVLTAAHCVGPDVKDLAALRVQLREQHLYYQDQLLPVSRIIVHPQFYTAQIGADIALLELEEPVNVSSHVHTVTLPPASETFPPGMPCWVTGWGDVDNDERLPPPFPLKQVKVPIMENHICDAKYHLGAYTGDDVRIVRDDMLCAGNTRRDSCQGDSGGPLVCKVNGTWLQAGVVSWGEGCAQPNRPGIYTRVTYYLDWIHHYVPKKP
Description for HepG2 proteasome: A cell-based CT-like peptidase assay was performed using the Proteasome-Glo cell-based assay reagent (Promega) according to the manufacturer's guidelines. Briefly, HepG2 cells (10^4 cells/well) were treated with the compounds indicated in the figures for 2 h, followed by incubation with the luminescent substrate for 10 min. Luminescence was detected with a Tecan M200 Pro plate reader.

Regarding `CC(C)C[C@H](NP(=O)(O)O[C@@H]1O[C@@H](C)[C@H](O)[C@@H](O)[C@H]1O)C(=O)N[C@@H](Cc1c[nH]c2ccccc12)C(=O)O` [Phosphoramidon], it took 0.0422 µM to reach half-maximal inhibition on Neprilysin (IC50).
Regarding `CNC(=O)[C@H](Cc1c[nH]c2ccccc12)NC(=O)[C@@H](CC(=O)NO)CC(C)C` [GM6001], the IC50 (in general, the concentration that gives 50% inhibition) came to 0.0811 µM at ADAM10; 0.00117 µM against MMP 12; 0.0163 µM against MMP 3; 0.00124 µM on MMP 14; 0.535 nM on MMP 13; 0.00438 µM on MMP 7. On TACE, this molecule returned a half-maximal inhibitory concentration (IC50) of 9.1 nM.
`O=C(N[C@@H](Cc1ccccc1)C(=O)N[C@@H](CCc1ccccc1)B(O)O)c1cnccn1` [Compound 32, ((R)-3-phenyl-1-((S)-3-phenyl-2-(pyrazine-2-carboxamido)propanamido)propyl)boronic acid]: the IC50 against ClpP1P2 (setting [1]) was determined as 7.3 ± 1.9 µM; against HepG2 proteasome, 0.07 ± 0.01 µM. In addition, the “M. smegmatis ΔprcAB MIC50” value with M. smegmatis ΔprcAB stood at 7 ± 1 µM. In the test with M. tuberculosis H37Rv (read-out: MIC50 (μM) against M. tuberculosis H37Rv), the MIC50 came out at 6 µM (≈ 2.59 µg/mL). Further, the MIC90 in the test on M. tuberculosis H37Rv (read-out: MIC90 (μM) against M. tuberculosis H37Rv) worked out at 25 µM (≈ 10.8 µg/mL).
For `CCOC(=O)c1ccc(OC(=O)CCCCCN=C(N)N)cc1` [Gabexate mesylate (GM), Gabexate mesylate], the IC50 against Thrombin a was determined as 3.73 µM; at Tryptase g1 it was 0.0506 µM; against Tryptase b2, 0.0873 µM; against Urokinase, 0.1 µM; at Plasma kallikrein, 0.475 µM; at Kallikrein 13, 17.6 µM. The IC50 at Kallikrein 12 was 0.351 µM; against Elastase, 1.81 µM; against Kallikrein 5, 8.06 µM; against Plasmin it was 0.936 µM; at Kallikrein 14 it was 0.969 µM; at Kallikrein 7, 29.3 µM. The values for the IC50 in the test on Trypsin, against FXa and at Matriptase 2 were 0.0669 µM, 5.3 µM and 7.56 µM, respectively.
With `CC(C)C[C@H](NC(=O)[C@H]1O[C@@H]1C(=O)O)C(=O)NCCCCN=C(N)N` [Compound E64], the IC50 on Calpain 1 is 0.098 µM; against Cathepsin B, 0.00987 µM; at Cathepsin L, 0.00999 µM; against Cathepsin H, 0.198 µM; on Papain, 0.000936 µM; at Cathepsin C, 0.607 µM. The half-inhibitory concentration (IC50) amounted to 0.00939 µM at Cathepsin S and 0.0118 µM against Cathepsin V.
For `O=C(N[C@@H](Cc1ccccc1)C(=O)N[C@@H](CCC1CCCCC1)B(O)O)c1ccccc1F` [Compound 49, ((R)-3-cyclohexyl-1-((S)-2-(2-fluorobenzamido)-3-phenylpropanamido)propyl)boronic acid], the IC50 at ClpP1P2 (setting [1]) is greater than 200 µM; at HepG2 proteasome, 0.5 µM. In addition, the “M. smegmatis ΔprcAB MIC50” value in the test on M. smegmatis ΔprcAB was greater than 200 µM.
Consider “((R)-1-((S)-2-(indolizine-3-carboxamido)-3-phenylpropanamido)-3-methylbutyl)boronic acid [Compound 41]”, for which the half-maximal inhibitory concentration (IC50) at ClpP1P2 (read-out: M. smegmatis ΔprcAB IC50 (μM) for ClpP1P2, whole-cell RFP-SsrA reporter) came out at 11.3 ± 0.9 µM; on HepG2 proteasome (read-out: IC50 (μM) for HepG2 proteasome, HepG2 cells, 2 h treatment, chymotrypsin-like site) it was 0.006 ± 0.001 µM. Moreover, the “M. smegmatis ΔprcAB MIC50” value with M. smegmatis ΔprcAB stood at 15 ± 0 µM.
`CC(C)C[C@H](NC(=O)[C@@H](N)Cc1ccccc1)B(O)O` [Compound 26, ((R)-1-((S)-2-amino-3-phenylpropanamido)-3-methylbutyl)boronic acid]: the IC50 at ClpP1P2 (setting [1]) was greater than 200 µM; on HepG2 proteasome, 0.08 ± 0.01 µM. In addition, in the test with M. smegmatis ΔprcAB, the “M. smegmatis ΔprcAB MIC50” value worked out at 100 ± 0 µM.
